Test results from ChEMBL document CHEMBL2331301, “Structural analysis of the active sites of dihydrofolate reductase from two species of Candida uncovers ligand-induced conformational changes shared among species” (Bioorg Med Chem Lett, 2013).
Values after ≈ are worked out from the molar mass of the structure shown. Active and inactive are the calls of the source. No cut-off for these calls is given here.

Key:
Nakaseomyces glabratus [1] = test: Binding affinity to Candida glabrata DHFR at 1 mM incubated for 2 hrs by crystallographic analysis in presence of 1 mM NADPH
[2] = Selectivity ratio of IC50 for human DHFR to Candida glabrata DHFR
Dihydrofolate reductase [3] = molecular target: T1, Dihydrofolate reductase (Homo sapiens, UniProt P00374); test: Inhibition of human DHFR
T1 sequence (P00374 whole entry): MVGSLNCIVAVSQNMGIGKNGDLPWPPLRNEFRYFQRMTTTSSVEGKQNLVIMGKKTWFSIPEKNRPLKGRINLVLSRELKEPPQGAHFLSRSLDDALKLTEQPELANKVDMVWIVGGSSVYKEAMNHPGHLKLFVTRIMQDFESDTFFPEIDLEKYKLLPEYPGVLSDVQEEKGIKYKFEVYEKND

[4] = Selectivity ratio of IC50 for human DHFR to Candida albicans DHFR
[5] = Inhibition of Candida glabrata DHFR; design: species or system Nakaseomyces glabratus
Dihydrofolate reductase [6] = molecular target: T2, Dihydrofolate reductase (Candida albicans, UniProt P22906); test: Inhibition of Candida albicans DHFR
T2 sequence (P22906 whole entry): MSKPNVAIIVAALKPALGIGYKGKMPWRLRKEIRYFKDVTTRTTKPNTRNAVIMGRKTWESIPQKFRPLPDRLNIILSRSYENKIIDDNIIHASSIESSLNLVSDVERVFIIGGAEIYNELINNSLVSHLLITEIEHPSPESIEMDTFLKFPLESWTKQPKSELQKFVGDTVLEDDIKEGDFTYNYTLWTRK

[7] = molecular target: T3, Dihydrofolate reductase (Candida albicans) (UniProt P22906); test: Binding affinity to Candida albicans DHFR at 1 mM incubated for 2 hrs by crystallographic analysis in presence of 1 mM NADPH
T3 sequence (whole entry): T2 sequence (P22906 whole entry)

Candida albicans = test: Antifungal activity against Candida albicans; format: functional
Nakaseomyces glabratus [8] = test: Antifungal activity against Candida glabrata; format: functional

Compound	Activity (Nakaseomyces glabratus [1])	Ratio IC50 [2]	IC50 (Dihydrofolate reductase [3])	Ratio IC50 [4]	IC50 [5]	IC50 (Dihydrofolate reductase [6])	Activity [7]	MIC (Candida albicans)	MIC (Nakaseomyces glabratus [8])
CCc1nc(N)nc(N)c1C#CC(C)c1cc(OC)cc(N2CCOCC2)c1 (configuration not stated)	Active	11	250 nM	11	22 nM	23 nM			
COc1cc(-c2ccncc2)cc(C(C)C#Cc2c(C)nc(N)nc2N)c1 (configuration not stated)		15		25	97 nM	61 nM			
CCc1nc(N)nc(N)c1C#CCc1cc(OC)cc(-c2cccc3cnccc23)c1		3.8	60 nM	0.84	16 nM	71 nM			
CCc1nc(N)nc(N)c1C#CC(C)c1cc(OC)cc(-c2ccncc2)c1 (configuration not stated)	Active	15		22	89 nM	60 nM	Active		
CCc1nc(N)nc(N)c1C#CCc1cc(OC)cc(-c2ccc3c(c2)OCCO3)c1	Active	7.4	140 nM	1.8	19 nM	78 nM	Active		
CCc1nc(N)nc(N)c1C#CC(C)c1cc(OC)cc(-c2ccc3c(c2)OCCO3)c1 (configuration not stated)		14	260 nM	11	18 nM	23 nM			
COc1cc(-c2ccc(C)cc2)cc(C(C)C#Cc2c(C)nc(N)nc2N)c1 (configuration not stated)	Active				0.6 nM		Active	1.5 µg/mL (≈ 4.03 µM)	1.5 µg/mL (≈ 4.03 µM)
COc1cc(C(C)(C)C#Cc2c(C)nc(N)nc2N)cc(OC)c1OC		26		9	11 nM	33 nM			
COc1cc(C(C)C#Cc2c(C)nc(N)nc2N)cc(N2CCOCC2)c1 (configuration not stated)		20		19	20 nM	21 nM			
CCc1nc(N)nc(N)c1C#CC(C)c1cc(OC)cc(-c2cccc3cnccc23)c1 (configuration not stated)		4.1	45 nM	2.6	11 nM	17 nM			
CCc1nc(N)nc(N)c1C#CCc1cc(OC)ccc1OC					8.2 nM				
